Assay [1] deals with MDA-MB-231. In words: Antitumor activity against human MDA-MB-231 cells xenografted in athymic BALB/c nude mouse assessed as decrease in tumor volume at 1.25 to 5 mg/kg, […] administered every two days for 28 days measured post-last dose by caliper method. The class given is functional, organism-based. On the technique in general: Xenograft models place foreign cells or tissue in a host animal.

Assay [2] relates to MDA-MB-231. In words: Antiproliferative activity against human MDA-MB-231 cells assessed as reduction in cell viability after 24 hrs by MTT assay. It is filed as functional, cell-based. In general terms: Tetrazolium dyes change colour on reduction, which living cells bring about.
The test system of assay [3] is MDA-MB-231. In words: Induction of apoptosis in human MDA-MB-231 cells assessed as increase in late apoptotic cells at 20 to 40 ug/ml after 24 hrs by Annexin-V-FITC/propidium iodide staining based FACS analysis. It is filed as functional, cell-based.
Assay [4] has as its system MDA-MB-231. In words: Induction of apoptosis in human MDA-MB-231 cells assessed as early apoptotic cells at 80 ug/ml after 24 hrs by Annexin-V-FITC/propidium iodide staining based FACS analysis relative to control. It is filed as functional.
For assay [5], the system named is Mus musculus. In words: Induction of ERK phosphorylation in athymic BALB/c nude mouse xenografted with human MDA-MB-231 cells at 1.25 to 5 mg/kg, sc administered every two days for 28 days by Western blot analysis. It is filed as functional, organism-based.
The subject of assay [6] is Epidermal growth factor receptor (Homo sapiens), P00533 [L858R]. In words: Inhibition of EGFR L858R mutant (unknown origin) using polyE4Y1 as substrate measured after 60 mins.
Assay [7] deals with Mus musculus. In words: Effect on MEK phosphorylation in athymic BALB/c nude mouse xenografted with human MDA-MB-231 cells at 1.25 to 5 mg/kg, sc administered every two days for 28 days by western blot analysis. It is filed as functional, organism-based.
Assay [8] has as its system Mus musculus. The assay can be described thus: Down regulation of AKT phosphorylation in athymic BALB/c nude mouse xenografted with human MDA-MB-231 cells at 1.25 to 5 mg/kg, sc administered every two days for 28 days by Western blot analysis. The class given is functional, organism-based.
The test system of assay [9] is MDA-MB-231. In words: Induction of apoptosis in human MDA-MB-231 cells assessed as increase in apoptotic cells after 24 hrs in presence of lapatinib by Annexin-V-FITC/propidium iodide staining based FACS analysis. It is filed as functional, cell-based. Background: A flow cytometer gives signals particle by particle.
Assay [10] relates to Mus musculus. In words: Increase in ERK expression in athymic BALB/c nude mouse xenografted with human MDA-MB-231 cells at 1.25 to 5 mg/kg, sc administered every two days for 28 days by Western blot analysis. It is filed as functional, organism-based.
The subject of assay [11] is Mus musculus. The assay can be described thus: Down regulation of PI3K expression athymic BALB/c nude mouse xenografted with human MDA-MB-231 cells at 1.25 to 5 mg/kg, sc administered every two days for 28 days by Western blot analysis. It is filed as functional, organism-based.
The target in assay [12] is Epidermal growth factor receptor (Homo sapiens) (UniProt P00533). The assay can be described thus: Inhibition of EGFR phosphorylation in human MDA-MB-231 cells by Western blot analysis. The class given is cell-based.
Chain of Epidermal growth factor receptor (Homo sapiens) (P00533 whole entry): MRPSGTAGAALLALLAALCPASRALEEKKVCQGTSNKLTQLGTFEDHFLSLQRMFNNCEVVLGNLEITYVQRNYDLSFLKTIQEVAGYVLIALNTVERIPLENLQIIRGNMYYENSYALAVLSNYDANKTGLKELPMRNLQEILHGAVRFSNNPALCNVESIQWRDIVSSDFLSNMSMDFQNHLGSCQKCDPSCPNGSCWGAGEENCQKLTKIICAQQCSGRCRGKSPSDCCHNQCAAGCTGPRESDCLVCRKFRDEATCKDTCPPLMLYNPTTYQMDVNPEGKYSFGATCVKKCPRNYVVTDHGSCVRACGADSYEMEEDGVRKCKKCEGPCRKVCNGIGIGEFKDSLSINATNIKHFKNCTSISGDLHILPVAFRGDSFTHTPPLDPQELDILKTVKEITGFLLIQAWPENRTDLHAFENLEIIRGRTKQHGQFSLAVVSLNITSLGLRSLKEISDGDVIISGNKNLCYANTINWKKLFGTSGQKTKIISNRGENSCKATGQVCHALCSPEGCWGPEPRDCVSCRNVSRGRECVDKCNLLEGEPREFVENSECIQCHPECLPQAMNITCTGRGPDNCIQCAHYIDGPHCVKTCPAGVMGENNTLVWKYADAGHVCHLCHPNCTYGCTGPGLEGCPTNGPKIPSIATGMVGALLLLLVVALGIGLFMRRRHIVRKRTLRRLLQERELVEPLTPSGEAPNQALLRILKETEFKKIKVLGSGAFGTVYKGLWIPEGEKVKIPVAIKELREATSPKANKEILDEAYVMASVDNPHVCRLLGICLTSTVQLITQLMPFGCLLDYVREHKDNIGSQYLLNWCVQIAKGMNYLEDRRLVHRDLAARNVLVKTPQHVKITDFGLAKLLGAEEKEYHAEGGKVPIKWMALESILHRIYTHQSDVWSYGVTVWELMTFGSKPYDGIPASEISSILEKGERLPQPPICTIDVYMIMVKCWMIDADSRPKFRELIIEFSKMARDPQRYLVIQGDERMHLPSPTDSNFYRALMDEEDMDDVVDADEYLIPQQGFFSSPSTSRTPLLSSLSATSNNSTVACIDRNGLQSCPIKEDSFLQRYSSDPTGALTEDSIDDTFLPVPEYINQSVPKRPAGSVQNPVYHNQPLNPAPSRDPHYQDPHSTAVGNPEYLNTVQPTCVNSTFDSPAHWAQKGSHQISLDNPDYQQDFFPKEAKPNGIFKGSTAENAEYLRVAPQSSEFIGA
Assay [13] deals with Mus musculus. In words: Down regulation of RAS expression in athymic BALB/c nude mouse xenografted with human MDA-MB-231 cells at 1.25 to 5 mg/kg, sc administered every two days for 28 days by Western blot analysis. It is filed as functional, organism-based.
The test system of assay [14] is Mus musculus. The assay can be described thus: Effect on RAF expression in athymic BALB/c nude mouse xenografted with human MDA-MB-231 cells at 1.25 to 5 mg/kg, sc administered every two days for 28 days by Western blot analysis. It is filed as functional, organism-based.
Assay [15] relates to MDA-MB-231. In words: Induction of apoptosis in human MDA-MB-231 cells assessed as increase in apoptotic cells after 24 hrs in presence of EGFR siRNA by Annexin-V-FITC/propidium iodide staining based FACS analysis. It is filed as functional, cell-based.
The subject of assay [16] is Mus musculus. The assay can be described thus: Effect on MEK expression in athymic BALB/c nude mouse xenografted with human MDA-MB-231 cells at 1.25 to 5 mg/kg, sc administered every two days for 28 days by western blot analysis. The class given is functional, organism-based.
Assay [17] has as its system Mus musculus. In words: Down regulation of mTOR expression in athymic BALB/c nude mouse xenografted with human MDA-MB-231 cells at 1.25 to 5 mg/kg, sc administered every two days for 28 days by Western blot analysis. It is filed as functional, organism-based.
In assay [18] the test system is MDA-MB-231. In words: Induction of apoptosis in human MDA-MB-231 cells assessed as increase in cleaved caspase 3 expression at 20 to 80 ug/ml by Western blot analysis. It is filed as functional, cell-based.
Assay [19] deals with MDA-MB-231. The assay can be described thus: Induction of apoptosis in human MDA-MB-231 cells assessed as down regulation of PARP1 expression by Western blot analysis. It is filed as functional, cell-based.

Active and inactive are the calls of the source. The calls are words filed in the database; no cut-off is given here.

Chain of Epidermal growth factor receptor (Homo sapiens), P00533 [L858R] (P00533 whole entry L858R): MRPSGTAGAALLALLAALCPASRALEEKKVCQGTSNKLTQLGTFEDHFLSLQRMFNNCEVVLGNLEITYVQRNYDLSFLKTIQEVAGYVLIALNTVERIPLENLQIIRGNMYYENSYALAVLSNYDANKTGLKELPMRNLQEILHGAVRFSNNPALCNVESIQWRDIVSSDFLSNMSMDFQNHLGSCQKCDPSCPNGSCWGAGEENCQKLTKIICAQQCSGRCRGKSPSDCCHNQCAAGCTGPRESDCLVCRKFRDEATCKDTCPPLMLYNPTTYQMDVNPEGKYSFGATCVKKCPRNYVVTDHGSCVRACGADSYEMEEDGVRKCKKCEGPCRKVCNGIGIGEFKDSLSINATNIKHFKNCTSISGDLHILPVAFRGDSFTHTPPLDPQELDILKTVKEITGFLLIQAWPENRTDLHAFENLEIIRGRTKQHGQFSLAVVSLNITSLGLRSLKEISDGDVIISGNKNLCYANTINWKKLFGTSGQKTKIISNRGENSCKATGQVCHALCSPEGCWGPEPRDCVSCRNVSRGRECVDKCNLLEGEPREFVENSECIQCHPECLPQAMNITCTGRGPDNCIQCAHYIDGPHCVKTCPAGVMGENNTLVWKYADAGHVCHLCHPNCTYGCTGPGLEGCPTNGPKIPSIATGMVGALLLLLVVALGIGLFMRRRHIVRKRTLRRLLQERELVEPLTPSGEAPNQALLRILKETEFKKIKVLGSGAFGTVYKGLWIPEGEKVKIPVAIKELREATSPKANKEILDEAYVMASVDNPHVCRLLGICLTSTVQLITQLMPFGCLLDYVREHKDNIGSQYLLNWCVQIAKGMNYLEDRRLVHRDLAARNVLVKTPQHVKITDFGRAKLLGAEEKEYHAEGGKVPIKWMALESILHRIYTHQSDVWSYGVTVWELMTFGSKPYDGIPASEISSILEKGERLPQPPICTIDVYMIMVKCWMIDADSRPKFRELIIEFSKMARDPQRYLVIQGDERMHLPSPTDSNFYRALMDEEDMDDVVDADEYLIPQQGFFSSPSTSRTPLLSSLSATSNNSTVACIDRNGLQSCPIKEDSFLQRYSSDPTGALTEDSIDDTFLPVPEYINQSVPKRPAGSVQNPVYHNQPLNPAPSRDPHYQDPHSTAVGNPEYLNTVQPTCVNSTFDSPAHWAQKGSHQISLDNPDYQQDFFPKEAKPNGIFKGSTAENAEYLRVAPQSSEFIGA

In the case of `C[C@H]1[C@H](C)CC[C@]2(C(=O)O)CC[C@]3(COC(=O)/C=C/c4ccc(O)cc4)C(=CC[C@@H]4[C@@]5(C)CC[C@H](O)C(C)(C)[C@@H]5CC[C@]43C)[C@H]12`, the result with MDA-MB-231 [1], in the assay with MDA-MB-231 [3], in the assay with Mus musculus [5], in the assay with Mus musculus [8], in the assay with Mus musculus [10] and with Mus musculus [11] was Active. For the same compound, the result with Mus musculus [13], in the assay on Mus musculus [17] and with MDA-MB-231 [18] was Active. Also, the results for the Activity result in the assay on MDA-MB-231 [2], in the assay with MDA-MB-231 [4] and with MDA-MB-231 [19] were “Dose-dependent effect”, 42.03% and “Dose-dependent effect”, respectively. Further, in [6], the inhibition result was “Dose-dependent effect”. Besides, the result with Mus musculus [7], with MDA-MB-231 [9], with Mus musculus [14], with MDA-MB-231 [15] and in the assay with Mus musculus [16] was inactive. Further, in [12], the inhibition result was “Active”.
